Data published in patent US11351178B2, “Selective HDAC6 inhibitors” (ITALFARMACO S.P.A., priority 2017, dated 2022).
Like-named read-outs stand apart in the source and are kept apart here.

Experiments:
recombinant human HDAC3 = target: T1, recombinant human HDAC3 (Homo sapiens, UniProt O15379); experiment: Enzymatic screening on recombinant human HDAC3; assay type: biochemical; conditions: Table 3
T1 construct: purchased BPS 50003
Procedure: Enzymatic activity on recombinant human HDAC6 and HDAC3 was evaluated (Table 2) for each synthesized compound.
After a period of incubation at 30° C. (incubation times vary for different isoforms and are shown in table 1) 25 μL of solution containing the substrate were added. As substrate, FLUOR DE LYS® deacetylase substrate (Enzo Life Sciences, cat #BML-K1104, FdL), FLUOR DE LYS®-Green substrate (Enzo Life Sciences, cat #BML-K1572 FdL_G) and trifluoroacetyl-L-lysine (Tfal)-2× concentrated solution in 25 mM Tris-HCl, pH 8, 130 mM NaCl 0.05% Tween-20 10% glycerol) were used. Following a reaction period at 30° C.

[1] = test system: regulatory T cell (Treg, CD4+CD25+) suppression activity; experiment: T CD4 lymphocyte proliferation mediated by mouse regulatory T cells suppression assay; assay type: cell-based
Procedure: To evaluate the ability of the molecules under this patent to increase regulatory T cell (Treg, CD4^+CD25^+) suppression activity a T-cell (responder T cells, Teff) proliferation suppression assay was used. Treg cells at different concentrations were cultured with Teff cells (CD4^+CD25^−) in the presence of proliferative stimuli. T cells need of two stimuli to proliferate: the first given by the recognition of antigen associated with MHC by T cell receptor (TCR) and the second one derived from co-stimulatory molecules such as CD28. In the absence of a specific antigen, TCR activation can take place with an antibody recognizing one of the composing subunits, CD3ε. In this assay, anti-CD3ε monoclonal antibody and CD4 T cell depleted splenocytes were used as activator stimuli. Therefore, the ability to reduce Teff cells proliferation by Tregs in the presence or absence of HDAC6 inhibitors was assessed.
Treg and Teff cells were separated using the Treg isolation kit based on magnetic beads separation technique (Miltenyi Biotec) through an initial negative selection and a final positive selection process.
Single cell suspension was obtained from spleen of C57BL/6 mice using a 70 μm strainer.
Cell suspension was treated with ACK buffer to lyse red blood cells and then centrifuged for 5 minutes at 300×g. After centrifugation, the cells were resuspended in PBS (Phosphate Buffered Saline, Gibco) and counted. Subsequently, splenocytes were resuspended in a buffer consisting of PBS, 0.5% BSA and 2 mM EDTA.
To proceed with the first step of Treg separation, CD4 negative cells were indirectly magnetically labeled with a cocktail of biotin-conjugated antibodies against CD8a, CD11b, CD45R, CD49b, Ter-119 and Anti-Biotin MicroBeads CD4+ cells were thus obtained by negative selection as flow-through of a magnetic MACS column.
Cells bound to microbeads were eluted and conserved for their use as antigen presenting cells (APC) in the proliferation assay.
In the second step of Treg purification, pre-enriched CD4+ cells were labelled with an R-phycoerythrin (PE)-conjugated anti-CD25 antibody that preferentially binds to Treg cells and magnetic beads coupled with an anti PE antibody. The cell suspension was then loaded on a column. The Teff cells pass through the column without binding (negative selection), while beads-bound Treg cells adhere through the magnetic beads (positive selection). Treg cells were then eluted from the column by buffer flow using a plunger. Treg and Teff cell purification is summarized in FIG. 6. • CD4− cells from first positive selection as APC • Treg CD4+ CD25+ as suppressor cells • Teff CD4+ CD25− as responder/proliferating cells
CD4^− cells were treated with mitomycin C (50 μg/ml, Sigma) for 30 min at 37° C. to prevent their proliferation They were then resuspended at a concentration of 4.0×10^5/50 μl in complete medium (RPMI, FBS10%, penicillin/streptomycin 1×, 50 μM beta mercaptoethanol). Teffs were labeled with carboxy fluorescein succinimidyl ester (CFSE) at a concentration of 2 μM in PBS at 37° C., and after 10 minutes incubation, the reaction was blocked with a 10% FBS PBS solution. CFSE labelling allows covalent modification of Teff cell to analyse their proliferation by fluorescence dilution. The labelled Teffs were then centrifuged and resuspended at the final concentration of 5.0×10^4/50 μl in complete medium. Finally, the Tregs obtained by purification were diluted to the final concentration of 5.0×10^4/50 μl in complete medium.
Then a co-culture of Teff (5.0×10^4), T CD4^− (4.0×10^5) was prepared and Treg cells in different ratios (1:1, 1:2, 1:4, 1:8 ratio Teff to Treg cells) were added thereto. The test compounds at different concentrations or DMSO vehicle were added to the cell suspension. Finally, an anti-CD3ε monoclonal antibody (Miltenyi Biotec) was added at a concentration of 1 μg/ml. Cells were plated in flat bottom 96-well plates and each condition was set up in a technical duplicate. […]

[2] = test system: peripheral blood mononuclear cells (PBMCs); experiment: Cytotoxicity on PBMCs (CellTiter 96); assay type: cell-based; conditions: PBMC, 72 h; read-out: PBMC TOXICITY (72 h)
Procedure, shortened: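 Cells seeded (2×10^4/well for 697, 5×10^5/well for PBMCs); compounds added after 24 h at 1–10000 nM (697) or 1.5–10000 nM (PBMCs) and incubated 72 h. Viability read by CellTiter 96 Aqueous One tetrazolium assay of mitochondrial function.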

human PBMCs = experiment: Mixed Lymphocytes Reaction (MLR) with human PBMCs (IFN-γ, TNF-α, IL-6); assay type: cell-based; conditions: PBMC, 144 h, two-way MLR, 6 days, 1 μM, negative = induction
Procedure: In order to study HDAC6 inhibitors ability to inhibit the activation of allogenic T CD4+ cells, a Mixed Lymphocytes Reaction (MLR or mixed lymphocyte culture, CLM) assay was performed. This is a reaction involving blast transformation of in vitro cultured lymphocytes in the presence of allogeneic lymphocytes. There is the so-called “two-way” reaction wherein the two lymphocyte populations stimulate each other to proliferate, and the so-called “one way” reaction, wherein the proliferation of one of the two populations is inhibited by mitomycin C or irradiation, these cells provide proliferation stimulus (stimulator) to the so-called “responder” cells.
Human peripheral blood mononuclear cells (PBMCs) used in MLR were obtained by Ficoll gradient separation from Buffy Coat of healthy donors.
We used a two-way MLR. The cells from the two donors were plated at 1:1 ratio (allogenic stimulation) to the final concentration of 2×10^5 per well in U-bottom 96 well plates in RPMI 1640 medium with 10% FBS and antibiotics. As a control we individually plated the cells from each donor (singenic stimulus). The experiment for each inhibitor was set in deduplicate for allogeneic stimuli and in quintuplicate for singenic stimuli. The cells were cultured for 6 days in an incubator at 37° C.
After 6 days the effect of the test compounds was evaluated by measuring the production of pro-inflammatory cytokines recognized to be characteristics of this assay.
For this purpose, the culture supernatant was harvested and used for IFN-γ, TNF-α and IL-6 inflammatory cytokine assay.
The JAK inhibitor ruxolitinib was used as the active reference compound in the test.
Values in the table indicate the inhibition percentages. Negative values indicate an induction.

[3] = read-out: MLR IFN-γ inhibition percentage
[4] = read-out: MLR IL-6 inhibition percentage
[5] = read-out: MLR TNF-α inhibition percentage

T1 sequence (O15379 whole entry): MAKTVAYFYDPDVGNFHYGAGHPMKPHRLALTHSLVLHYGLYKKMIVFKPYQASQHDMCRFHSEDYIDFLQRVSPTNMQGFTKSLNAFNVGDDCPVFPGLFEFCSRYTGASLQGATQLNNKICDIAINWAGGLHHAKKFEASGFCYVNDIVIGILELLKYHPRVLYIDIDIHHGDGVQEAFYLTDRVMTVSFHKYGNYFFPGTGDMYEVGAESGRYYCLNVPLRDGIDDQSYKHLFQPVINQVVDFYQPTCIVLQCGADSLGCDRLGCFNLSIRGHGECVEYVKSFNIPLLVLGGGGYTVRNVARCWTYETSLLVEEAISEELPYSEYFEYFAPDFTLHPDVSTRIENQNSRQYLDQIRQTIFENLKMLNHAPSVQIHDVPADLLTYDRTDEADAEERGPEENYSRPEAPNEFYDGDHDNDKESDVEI
T1 sequence (Q9Y618 395-489 partner limits assumed): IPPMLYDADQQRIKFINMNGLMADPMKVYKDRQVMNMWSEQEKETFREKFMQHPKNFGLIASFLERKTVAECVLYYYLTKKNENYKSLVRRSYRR

SMILES | IC50 (recombinant human HDAC3) [nM] | RS (relative T-reg suppression, AUC drug/AUC control) ([1]; concentration 0.5 μM) | IC50 [2] [nM] | RS (relative T-reg suppression, AUC drug/AUC control) ([1]; concentration 1 μM) | inhibition at 1 µM (human PBMCs; [3]) [%] | inhibition at 1 µM (human PBMCs; [4]) [%] | inhibition at 1 µM (human PBMCs; [5]) [%] | RS (relative T-reg suppression, AUC drug/AUC control) ([1]; concentration 0.10 μM)
CN(C)S(=O)(=O)c1cccc(-c2nnn(Cc3ccc(C(=O)NO)cc3)n2)c1 [comp. 59, 4-[[5-[3-(dimethylsulfamoyl)phenyl]tetrazol-2-yl]methyl]benzenecarbohydroxamic acid] | 448 | 4.8 | – | – | – | – | – | –
CN(C)c1cccc(-c2nnc(Sc3ccc(C(=O)NO)cc3)n2C)c1 [comp. 77, 4-[[5-[3-(dimethylamino)phenyl]-4-methyl-1,2,4-triazol-3-yl]sulfanyl]benzenecarbohydroxamic acid] | 1150 | – | 2000 | 2.4 | 32.1 | 34.3 | 64.2 | –
O=C(NO)c1cc(F)c(Cn2nnnc2-c2ccccn2)c(F)c1 [comp. 13, 3,5-difluoro-N-hydroxy-4-((5-(pyridin-2-yl)-1H-tetrazol-1-yl)methyl)benzamide] | 2490 | – | – | 1.9 | -10.9 | 38.3 | 37.2 | –
O=C(NO)c1cc(F)c(Cn2nnc(-c3scc4c3OCCO4)n2)c(F)c1 [comp. 79, 4-[[5-(2,3-dihydrothieno[3,4-b][1,4]dioxin-5-yl)tetrazol-2-yl]methyl]-3,5-difluoro-benzenecarbohydroxamic acid] | 1650 | – | 3000 | 1.7 | 27.5 | 38.6 | 50.9 | –
O=C(NO)c1ccc(Cn2nnc(-c3ccccc3F)n2)cc1 [comp. 33, 4-[[5-(2-fluorophenyl)tetrazol-2-yl]methyl]benzenecarbohydroxamic acid] | 138 | – | – | – | – | – | – | 4.6
O=C(NO)c1cc(F)c(Cn2nnnc2-c2cccs2)c(F)c1 [comp. 15, 3,5-difluoro-N-hydroxy-4-((5-(thiophen-2-yl)-1H-tetrazol-1-yl)methyl)benzamide] | 6290 | – | > 10000 | 3.0 | 21 | 22.9 | 33.9 | –
O=C(NO)c1cc(F)c(Cn2nnc(-c3ccco3)n2)c(F)c1 [comp. 19, 3,5-difluoro-4-((5-(furan-2-yl)-2H-tetrazol-2-yl)methyl)-N-hydroxybenzamide] | 2640 | – | > 10000 | 2.3 | -7.85 | 4.62 | 25.9 | –
Cc1cc(-c2nnc(Sc3ccc(C(=O)NO)cc3)n2C)nn1C [comp. 85, 4-[[5-(1,5-dimethylpyrazol-3-yl)-4-methyl-1,2,4-triazol-3-yl]sulfanyl]benzenecarbohydroxamic acid] | 339 | 3.0 | 2000 | 3.8 | 51.8 | 66.9 | 73.8 | –
CCN(CC)S(=O)(=O)c1cccc(-c2nnc(Sc3ccc(C(=O)NO)cc3)n2C)c1 [comp. 66, 4-[[5-[3-(diethylsulfamoyl)phenyl]-4-methyl-1,2,4-triazol-3-yl]sulfanyl]benzenecarbohydroxamic acid] | 921 | – | – | 2.6 | 53 | 12.9 | 42.8 | –
O=C(NO)c1cc(F)c(Cn2nnc(-c3cccs3)n2)c(F)c1 [comp. 65, 3,5-difluoro-4-[[5-(2-thienyl)tetrazol-2-yl]methyl]benzenecarbohydroxamic acid] | 1860 | – | – | 4.4 | 45 | 5.4 | 67.3 | –
CCN(CC)S(=O)(=O)c1cccc(-c2nnc(Sc3ccc(C(=O)NO)cc3)n2N)c1 [comp. 61, 4-[[4-amino-5-[3-(diethylsulfamoyl)phenyl]-1,2,4-triazol-3-yl]sulfanyl]benzenecarbohydroxamic acid] | 488 | – | – | 1.1 | 16 | -21 | – | –
O=C(NO)c1cc(F)c(Cn2nnc(-c3ccccn3)n2)c(F)c1 [comp. 6, 3,5-difluoro-N-hydroxy-4-((5-(pyridin-2-yl)-2H-tetrazol-2-yl)methyl)benzamide] | 7260 | – | 20000 | 1.7 | -6.5 | 15.5 | 13.5 | –
